This is an account of results in patent US6124281A, “Azolobenzazepine derivatives as neurologically active agents” (Zeneca Limited, priority 1998, dated 2000).

The target in assay [1] is T1, N-methyl-D-aspartate receptor (Rattus norvegicus, UniProt P35439).
T1 construct: Freshly dissected cortices and hippocampi are homogenized in 0.32M sucrose; from tissue; host or cells: cortices and hippocampi of adult male Sprague-Dawley rats, synaptic membranes
The experiment in a line: [3H]-glycine Binding Assay. On the set-up: species or system Sprague-Dawley rat. The note with it: 20 nM [3H]-glycine, rat cortex and hippocampus synaptic membranes, pH 7.1, 30 minutes at 4° C. The procedure: [^3 H]-glycine Binding Assay
In the [^3 H]-glycine binding assay, neuronal synaptic membranes are prepared from adult (about 250 g) male Sprague-Dawley rats. Freshly dissected cortices and hippocampi are homogenized in 0.32M sucrose (110 mg/mL). Synaptosomes are isolated by centrifugation (1000×g, 10 minutes), the supernatant is pelleted (20,000×g, 20 minutes) resuspended in double-distilled water. The suspension was centrifuged for 20 minutes at 8,000×g. The resulting supernatant and buffy coat are washed twice (48,000×g, 10 minutes, resuspension in double-deionizedwater). The final pellet is quickly frozen (dry icelethanol bath) under double-deionized water and stored at -70° C.
On the day of the experiment, thawed synaptic membranes are homogenized with a Brinkmann Polytron (TM, Brinkmann Instruments, Westbury, N.Y.) tissue homogenizer in 50 mM tris(hydroxymethyl)aminomethane citrate, pH 7.1. The membranes are incubated with 0.04% Sufact-AMPS X100 (TM, Pierce, Rockford, Ill.) in buffer for 20 minutes at 37° C. and washed six times by centrifugation (48,000×g, 10 minutes) and resuspended in buffer. The final pellet is homogenized at 200 mg wet weight/mL of the buffer for the binding assay.
For [^3 H]-glycine binding at the N-methyl-D-aspartate receptor, 20 nM [^3 H]-glycine (40-60 Ci/mmol, New England Nuclear, Boston, Mass.) is incubated with the membranes suspended in 50 mM tris(hydroxymethyl)aminomethane citrate, pH 7.1 for 30 minutes at 4° C. Glycine, 1mM, is used to define the nonspecific binding. Bound [^3 H]-glycine is isolated from free using a Brandel (Biomedical Research and Development Laboratories, Gaithersburg, Md.) cell harvester for vacuum filtration over glass fiber filters (Whatman GFB from Brandel, Gaithersburg, Md.) presoaked in 0.025% polyethylenimine. The samples retained on the glass fiber filters are rinsed 3 times with a total of 2.5 mL ice cold buffer. Radioactivity is estimated by liquid scintillation counting. IC50 values are obtained from a least-squares regression of a logit-log transformation of the data.

Assay [2] relates to NMDA-induced excitatory response of red nucleus cells. The experiment in a line: Rat Red Nucleus Test. It is filed as in vivo. Conditions: iv. The procedure: The purpose of this test is to determine the effects of intravenously administered is glycine antagonists on the NMDA- induced excitatory response of red nucleus cells.
The procedure for the red nucleus test is as follows. Rats are anesthetized with chloral hydrate (400 mg/kg ip) and the femoral vein is catheterized for iv drug administration. Five-barrel micropipettes are stereotaxically positioned in the red nucleus. Typically, three to four of the five barrels are filled as follows: the recording barrel with 2M potassium citrate. the current balancing barrel with 4M NaCl, the drug barrel with 25 mM NMDA, and another drug barrel with 2.5 mM quisqualic acid (QA is only used in selectivity studies). NMDA is iontophoretically applied with an ejection current that is adjusted depending on the sensitivity of each individual red nucleus cell. The NMDA is cycled on and off (usually 30-60 sec. on and 60-120 sec. off) and the firing rate of the cell during each period is recorded. Once the baseline firing rate of the cell has been established, the test drug is administered iv. The inhibitory effect of the drug on the NMDA-induced excitatory response of the red nucleus cell can then be both qualitatively and quantitatively evaluated from the recordings and the raw data accumulated and the results are expressed as an ID50 value (The dose in mg/kg of the test drug which causes 50% inhibition).

In assay [3] the test system is neuronal damage in the hippocampus. The experiment in a line: Gerbil Ischemic Model. It is filed as in vivo, Mongolian gerbil. Conditions: ip twice (pre- and post-occlusion), 20 mg/kg body weight. The method, then:
Adult female Mongolian gerbils (50-70 g) are anesthetized with 2 to 3% halothane. The bilateral common carotid arteries at the neck are exposed and occluded with microaneurysm clips. After 10 min (unless specified), the clips are removed and the blood flow through the carotid arteries is restored and the skin is sutured. Test compounds are administered intraperitoneally both pre- and post-occlusion, for example 45 minutes before and 5 minutes after occlusion of the carotid arteries. Sham-operated animals are treated in the same manner except that the arteries are not clamped, gross behavioral observations along with motor activity are recorded for 2 hours on the first (24 hours) day following the occlusion. After 4 days, subjects are sacrificed (decapitation), brains are removed, fixed, sectioned and stained with hematoxylin/eosin and cresyl violet.
The brain sections are rated for neuronal damage in the hippocampus using the following rating scale:
1=slight damage (up to 25%)--restricted to CA1 subiculum border
2=moderate damage (up to 50%)--obvious damage, restricted to less than half of CA1 field […]
Sections (7 micron) are evaluated from each brain. […] The average brain damage rating score for each group is recorded, and the damage scores of the drug treated group are compared to the vehicle-treated group using Wilcoxcon-Rank Sum test. […]

In the next assay the test system is infarcted cortex. The experiment in a line: Rat Middle Cerebral Artery Test. It is filed as in vivo, SHR rat. The note with it: intravenously, 10 mg/kg per hour over 4 hours; permanent MCA occlusion. The procedure: Rat Middle Cerebral Artery Test
Male SHR rats weight 280-320 g are used for these studies. The method used for permanent middle cerebral artery (MCA) occlusion is as described by Brint et al (1988). […] Following occlusions, drugs are administered intravenously via jugular catheter. Twenty-four hours after MCA/common carotid artery occlusion, the animals are sacrificed and their brains quickly removed. Coronal sections of 1 mm thickness are cut using a vibratome and stained with 2,3,5-triphenyl-2H-tetrazolium chloride (TTC) dye. Following staining, necrotic tissue is readily distinguished from the intact brain and the area of infarcted cortex can be traced on an image analyzer. The infarct volume for each section is quantified with an image analyzer, and the total infarct volume is calculated with a program that sums all interval volumes. See S. Brint et al. J. Cerebral Blood Flow 8:474-475 (1988). The statistical analysis of the difference between the volume of ischemic damage in the vehicle control and drug-treated animals is analyzed by Student's t-test. The results are expressed as the percent (%) change in infarct volume and are presented as the mean for animals.

[4] abbreviates: NMDA-induced excitatory response, compounds of the invention, read-out: ID50 (dose of the test drug which causes 50% inhibition).

Where two headings read alike, the source gives them in different places.

In the case of `CCCOC(=O)c1n[nH]c2c(=O)[nH]c3cc(Cl)ccc3c(=O)c12` [Example 28, 3-propoxycarbonyl-7-chloropyrazolo[3,4-c][1]benzazepine-4,10(1H,9H)-dione], the IC50 in assay [1] is 27 nM. The ED50 in assay [2] (setting [4]) worked out at 4.6 mg/kg. With `C/C(=C\C(N)C(=O)O)CP(=O)(O)O` (stereo not shown) [CGP 37849, reference compound], the ED50 in assay [2] (read-out: ID50 of reference agents shown to be active in this test) came to 1.7 mg/kg.

In turn, `CCCCOC(=O)c1n[nH]c2c(=O)[nH]c3cc(Cl)ccc3c(=O)c12` [Example 27, 3-butoxycarbonyl-7-chloropyrazolo[3,4c][1]benzazepine-4,10(1H,9H)-dione] displayed a half-inhibitory concentration (IC50) in assay [1] of 229 nM. In addition, the ED50 in assay [2] (setting [4]) was determined as 5.7 mg/kg.

As for `O=c1[nH]c2cc(Cl)ccc2c(=O)c2n[nH]nc12` [Example 48(d), 7-Chloro-1,2,3-triazolo[4,5-c][1]benzazepine-4,10(1H,9H)-dione], the neuroprotection in assay [3] was 77%. In the case of `NC1CCN(O)C1=O` (stereo not shown) [HA-966, reference compound], the ED50 in assay [2] (reference agents, read-out: ID50 of reference agents shown to be active in this test) came out at 7.9 mg/kg. As for `CC(C)OC(=O)c1n[nH]c2c(=O)[nH]c3cc(Cl)ccc3c(=O)c12` [Example 18, 7-Chloro-3-(isopropoxycarbonyl)pyrazolo[3,4-c][1]benzazepine-4,10(1H,9H)-dione], in the assay on infarcted cortex, the “change in infarct volume” value is -19%. The IC50 in assay [1] was determined as 64 nM. The ED50 in assay [2] (setting [4]) turned out to be 3.5 mg/kg.
